This is an account of results in ChEMBL document CHEMBL1142270, “Synthesis, thermal stability, antimalarial activity of symmetrically and asymmetrically substituted tetraoxanes” (Bioorg Med Chem Lett, 2008).

The term pIC50 denotes −log10 of the IC50, conventionally taken in molar units.

pIC50: −log10 of the molar value. Calls of active or inactive are those of the source. The rule behind the calls is not given here. Bounds are passed on as bounds.

The first data set has as its system Plasmodium falciparum. Description: Antimalarial activity against Plasmodium falciparum D6 in parasite LDH assay. Type of data set: functional, organism-based.
Details: not given
The compound `c1ccc(C2OOC3(CCCCCC3)OO2)cc1` showed a pIC50 of 5.00.
The same measure, in the same setting: the value for `c1ccc(C2OOC3(CCCCC3)OO2)cc1` was 5.66; that for `Brc1ccc(C2OOC3(CCCCC3)OO2)cc1` was 5.42.
Same read-out and setting: the value for `C[C@@H]1CC[C@H]2[C@@H](C)C(=O)O[C@@H]3O[C@@]4(C)CC[C@@H]1[C@]32OO4` [ARTEMISININ] was 7.46; that for `Fc1ccc(C2OOC(c3ccc(F)cc3)OO2)cc1` (stereo not given) was 5.79.
The same measure, in the same setting: the value for `Clc1ccc(C2OOC3(CCCC3)OO2)cc1` was 4.78; that for `Clc1cccc(C2OOC3(CCCCC3)OO2)c1` was 5.67.
For `Cc1cccc(C2OOC(c3cccc(C)c3)OO2)c1` (stereo not given), the negative-log IC50 (pIC50) is 6.02.
The same measure, in the same setting: to `Clc1ccc(C2OOC3(CCCCC3)OO2)cc1` belongs 5.58; to `Clc1ccccc1C1OOC2(CCCCC2)OO1`, 4.85.
On the same count and under the same terms, the value for `Clc1ccc(C2OOC3(CCCCCC3)OO2)cc1` was 4.78.
The compound `Cc1ccc(C2OOC(c3ccc(C)cc3)OO2)cc1` (stereo not given) showed a pIC50 of 5.83.
On the same count and under the same terms, to `Cc1ccccc1C1OOC(c2ccccc2C)OO1` (stereo not given) belongs 5.61; to `Clc1ccc(C2OOC(c3ccc(Cl)cc3)OO2)cc1` (stereo not given), 5.35; to `Clc1cccc(C2OOC(c3cccc(Cl)c3)OO2)c1` (stereo not given), 5.86.
Still for that read-out and setting: the value for `Brc1ccc(C2OOC(c3ccc(Br)cc3)OO2)cc1` (stereo not given) was 5.86.

Tested on in the next data set: not listed separately
Description: Selectivity index, ratio of IC50 for African green monkey (Cercopithecus aethiops) Vero cells to IC50 for Plasmodium falciparum D6. The data set is classed as functional.
Details: not given
For the compound `c1ccc(C2OOC3(CCCCCC3)OO2)cc1`, the “Ratio IC50” value was >1.9.
Still for that read-out and setting: to `c1ccc(C2OOC3(CCCCC3)OO2)cc1` belongs >9.2.
Turning to `Brc1ccc(C2OOC3(CCCCC3)OO2)cc1`, the “Ratio IC50” value is >4.
On the same count and under the same terms, the value for `C[C@@H]1CC[C@H]2[C@@H](C)C(=O)O[C@@H]3O[C@@]4(C)CC[C@@H]1[C@]32OO4` [ARTEMISININ] was >476; that for `Fc1ccc(C2OOC(c3ccc(F)cc3)OO2)cc1` (stereo not given) was >10.4.
The same measure, in the same setting: to `Clc1ccc(C2OOC3(CCCC3)OO2)cc1` belongs >1; to `Clc1cccc(C2OOC3(CCCCC3)OO2)c1`, >8.2.
Still for that read-out and setting: to `Cc1cccc(C2OOC(c3cccc(C)c3)OO2)c1` (stereo not given) belongs >18.2.
Consider `Clc1ccc(C2OOC3(CCCCC3)OO2)cc1`, for which the “Ratio IC50” value is on record as >6.6.
On the same count and under the same terms, to `Clc1ccccc1C1OOC2(CCCCC2)OO1` belongs >1.3.
With `Clc1ccc(C2OOC3(CCCCCC3)OO2)cc1`, the “Ratio IC50” value is on record as >1.
On to `Cc1ccc(C2OOC(c3ccc(C)cc3)OO2)cc1` (stereo not given), for which the “Ratio IC50” value was >11.9.
The same measure, in the same setting: the value for `Cc1ccccc1C1OOC(c2ccccc2C)OO1` (stereo not given) was >7.1; that for `Clc1ccc(C2OOC(c3ccc(Cl)cc3)OO2)cc1` (stereo not given) was >3.4.
On the same count and under the same terms, the value for `Clc1cccc(C2OOC(c3cccc(Cl)c3)OO2)c1` (stereo not given) was >11.1; that for `Brc1ccc(C2OOC(c3ccc(Br)cc3)OO2)cc1` (stereo not given) was >8.5.

A further data set has as its system Plasmodium falciparum. Description: Antimalarial activity against Plasmodium falciparum W2 in parasite LDH assay. The data set is classed as functional, organism-based.
Details: not given
`c1ccc(C2OOC3(CCCCCC3)OO2)cc1` had a pIC50 of 5.12.
Same read-out and setting: the value for `c1ccc(C2OOC3(CCCCC3)OO2)cc1` was 5.74; that for `Brc1ccc(C2OOC3(CCCCC3)OO2)cc1` was 5.27.
The same measure, in the same setting: the value for `C[C@@H]1CC[C@H]2[C@@H](C)C(=O)O[C@@H]3O[C@@]4(C)CC[C@@H]1[C@]32OO4` [ARTEMISININ] was 7.82; that for `Fc1ccc(C2OOC(c3ccc(F)cc3)OO2)cc1` (stereo not given) was 5.94; that for `Clc1ccc(C2OOC3(CCCC3)OO2)cc1` was 4.78.
Same read-out and setting: the value for `Clc1cccc(C2OOC3(CCCCC3)OO2)c1` was 5.61.
`Cc1cccc(C2OOC(c3cccc(C)c3)OO2)c1` (stereo not given): the pIC50 is 6.11.
As for `Clc1ccc(C2OOC3(CCCCC3)OO2)cc1`, the pIC50 was 5.59.
On the same count and under the same terms, to `Clc1ccccc1C1OOC2(CCCCC2)OO1` belongs 5.03.
The same measure, in the same setting: the value for `Clc1ccc(C2OOC3(CCCCCC3)OO2)cc1` was 4.78; that for `Cc1ccc(C2OOC(c3ccc(C)cc3)OO2)cc1` (stereo not given) was 5.93; that for `Cc1ccccc1C1OOC(c2ccccc2C)OO1` (stereo not given) was 5.89.
Same read-out and setting: to `Clc1ccc(C2OOC(c3ccc(Cl)cc3)OO2)cc1` (stereo not given) belongs 5.50; to `Clc1cccc(C2OOC(c3cccc(Cl)c3)OO2)c1` (stereo not given), 6.15; to `Brc1ccc(C2OOC(c3ccc(Br)cc3)OO2)cc1` (stereo not given), 6.17.

Tested on in the next data set: not listed separately
Description: Selectivity index, ratio of IC50 for african green monkey (Cercopithecus aethiops) Vero cells to IC50 for Plasmodium falciparum W2. Type of data set: functional.
Details: not given
On to `c1ccc(C2OOC3(CCCCCC3)OO2)cc1`, for which the “Ratio IC50” value is >2.5.
Regarding `c1ccc(C2OOC3(CCCCC3)OO2)cc1`, the “Ratio IC50” value is recorded as >11.1.
For the compound `Brc1ccc(C2OOC3(CCCCC3)OO2)cc1`, the “Ratio IC50” value is reported as >2.8.
For the compound `C[C@@H]1CC[C@H]2[C@@H](C)C(=O)O[C@@H]3O[C@@]4(C)CC[C@@H]1[C@]32OO4` [ARTEMISININ], the “Ratio IC50” value was >1400.
On to `Fc1ccc(C2OOC(c3ccc(F)cc3)OO2)cc1` (stereo not given), for which the “Ratio IC50” value is >14.9.
Regarding `Clc1ccc(C2OOC3(CCCC3)OO2)cc1`, the “Ratio IC50” value is given as >1.
As to `Clc1cccc(C2OOC3(CCCCC3)OO2)c1`, the “Ratio IC50” value is >7.1.
As for `Cc1cccc(C2OOC(c3cccc(C)c3)OO2)c1` (stereo not given), the “Ratio IC50” value is recorded as >22.7.
Regarding `Clc1ccc(C2OOC3(CCCCC3)OO2)cc1`, the “Ratio IC50” value is >6.8.
The same measure, in the same setting: to `Clc1ccccc1C1OOC2(CCCCC2)OO1` belongs >1.9; to `Clc1ccc(C2OOC3(CCCCCC3)OO2)cc1`, >1.
On to `Cc1ccc(C2OOC(c3ccc(C)cc3)OO2)cc1` (stereo not given), for which the “Ratio IC50” value is given as >14.9.
On the same count and under the same terms, to `Cc1ccccc1C1OOC(c2ccccc2C)OO1` (stereo not given) belongs >13.6; to `Clc1ccc(C2OOC(c3ccc(Cl)cc3)OO2)cc1` (stereo not given), >4.8.
Same read-out and setting: to `Clc1cccc(C2OOC(c3cccc(Cl)c3)OO2)c1` (stereo not given) belongs >21.6; to `Brc1ccc(C2OOC(c3ccc(Br)cc3)OO2)cc1` (stereo not given), >13.6.

The subject of another data set is Plasmodium falciparum. Description: Antimalarial activity against Plasmodium falciparum D6 in parasite LDH assay to 16.72 uM. The data set is classed as functional, organism-based.
Details: not given
In the case of `Brc1ccc(C2OOC3(CCCCCC3)OO2)cc1`, the result was inactive.
For `Brc1ccc(C2OOC3(CCCC3)OO2)cc1`, the result was inactive.
On the same count and under the same terms, the value for `Brc1ccccc1C1OOC(c2ccccc2Br)OO1` (stereo not given) was “inactive”; that for `FC(F)(F)c1cccc(C2OOC(c3cccc(C(F)(F)F)c3)OO2)c1` (stereo not given) was “inactive”; that for `Clc1ccccc1C1OOC(c2ccccc2Cl)OO1` (stereo not given) was “inactive”.
Still for that read-out and setting: the value for `FC(F)(F)c1ccc(C2OOC(c3ccc(C(F)(F)F)cc3)OO2)cc1` (stereo not given) was “inactive”; that for `Brc1cccc(C2OOC(c3cccc(Br)c3)OO2)c1` (stereo not given) was “inactive”.

A further data set has as its system Plasmodium falciparum. The data set is described as follows: Antimalarial activity against Plasmodium falciparum W2 in parasite LDH assay to 16.72 uM. The data set is classed as functional, organism-based.
Details: not given
With `Brc1ccc(C2OOC3(CCCCCC3)OO2)cc1`, the result was inactive.
Regarding `Brc1ccc(C2OOC3(CCCC3)OO2)cc1`, the outcome was inactive.
For the compound `Brc1ccccc1C1OOC(c2ccccc2Br)OO1` (stereo not given), the result was inactive.
On the same count and under the same terms, the value for `FC(F)(F)c1cccc(C2OOC(c3cccc(C(F)(F)F)c3)OO2)c1` (stereo not given) was “inactive”; that for `Clc1ccccc1C1OOC(c2ccccc2Cl)OO1` (stereo not given) was “inactive”.
Same read-out and setting: to `FC(F)(F)c1ccc(C2OOC(c3ccc(C(F)(F)F)cc3)OO2)cc1` (stereo not given) belongs “inactive”; to `Brc1cccc(C2OOC(c3cccc(Br)c3)OO2)c1` (stereo not given), “inactive”.

The next data set has as its system Vero. Description: Cytotoxicity against african green monkey Vero cells by neutral red assay upto 16.72 uM. Type of data set: cell-based. As to conditions: chlorocebus sabaeus.
Turning to `c1ccc(C2OOC3(CCCCCC3)OO2)cc1`, the Activity entry is on record as “Non-toxic”.
Regarding `c1ccc(C2OOC3(CCCCC3)OO2)cc1`, the Activity result is listed as “Non-toxic”.
Regarding `Brc1ccc(C2OOC3(CCCCC3)OO2)cc1`, the Activity result is “Non-toxic”.
Consider `C[C@@H]1CC[C@H]2[C@@H](C)C(=O)O[C@@H]3O[C@@]4(C)CC[C@@H]1[C@]32OO4` [ARTEMISININ], for which the Activity result is “Non-toxic”.
On the same count and under the same terms, the value for `Fc1ccc(C2OOC(c3ccc(F)cc3)OO2)cc1` (stereo not given) was “Non-toxic”; that for `Clc1ccc(C2OOC3(CCCC3)OO2)cc1` was “Non-toxic”.
For `CCN(CC)CCCC(C)Nc1ccnc2cc(Cl)ccc12` (stereo not given) [CHLOROQUINE], the Activity entry is recorded as “Non-toxic”.
In the case of `Clc1cccc(C2OOC3(CCCCC3)OO2)c1`, the Activity entry is given as “Non-toxic”.
Same read-out and setting: to `Cc1cccc(C2OOC(c3cccc(C)c3)OO2)c1` (stereo not given) belongs “Non-toxic”.
Consider `Clc1ccc(C2OOC3(CCCCC3)OO2)cc1`, for which the Activity entry is “Non-toxic”.
`Clc1ccccc1C1OOC2(CCCCC2)OO1`: the Activity entry was “Non-toxic”.
Still for that read-out and setting: the value for `Clc1ccc(C2OOC3(CCCCCC3)OO2)cc1` was “Non-toxic”; that for `Cc1ccc(C2OOC(c3ccc(C)cc3)OO2)cc1` (stereo not given) was “Non-toxic”.
On the same count and under the same terms, to `Cc1ccccc1C1OOC(c2ccccc2C)OO1` (stereo not given) belongs “Non-toxic”.
Still for that read-out and setting: to `Clc1ccc(C2OOC(c3ccc(Cl)cc3)OO2)cc1` (stereo not given) belongs “Non-toxic”; to `Clc1cccc(C2OOC(c3cccc(Cl)c3)OO2)c1` (stereo not given), “Non-toxic”.
`Brc1ccc(C2OOC(c3ccc(Br)cc3)OO2)cc1` (stereo not given): the Activity entry is given as “Non-toxic”.
